# Data from patent US9034825B2, “Treatment of myocardial injury with humanin analogs” (Albert Einstein College of Medicine of Yeshiva University, priority 2007, dated 2015).
# Columns and labels:
# normal MEFs = experiment: Apoptosis ELISA in normal mouse embryonic fibroblasts; type: cell-based; settings: 24 hours, 100 nM of peptides
# Description: (§1) Mouse embryonic fibroblasts derived from normal and IGFBP3 KO mice were used to test the effects of humanin and its analogues on survival. Apoptosis ELISA was used as an output measure and cells were treated for 24 hours with 100 nM of peptides. […] Thus, the HNGF6A humanin analogue has non-obvious properties that are different from previously described humanin derivatives and has increased potency as a result of its specific molecular alteration leading to reduced IGFBP-3 binding.
# NONcNZO10/LtJ mice = experiment: IP glucose tolerance test in NONcNZO10/LtJ mice; type: in vivo, mouse; settings: IP 25 microgram twice a day for 14 days; IP GTT on D15
# Description: NONcNZO10/LtJ mice were injected IP with HNGF6A 25 microgram twice a day for 14 days. Mice were subjected to 6 hour fast followed by IP GTT on D15. Baseline glucose measurement was taken and the mice were injected IP with 0.5 mg/g glucose. Glucose was sampled at 0 and 90, 120 min.
# BP3KO MEFs = experiment: Apoptosis ELISA in IGFBP3 KO mouse embryonic fibroblasts; type: cell-based; settings: 24 hours, 100 nM of peptides
# Description: as §1
# Sprague-Dawley rats = experiment: Intravenous infusion of humanin or analogs during hyperinsulinemic clamp; type: in vivo, rat; settings: infused peripherally 0.0375 mg/kg/hr
# IGFBP-3 = IGFBP-3 (Homo sapiens, UniProt P17936); experiment: Dot blots probed with radiolabeled IGFBP-3; type: binding; settings: FIG. 17A
# Description: For acute signaling studies, rats were injected ICV with either aCSF, 20 μg of HN or F6A (dissolved in aCSF) over 5 min, and sacrificed 30 min later. Tissue sample were obtained from mediobasal hypothalamus, liver and muscle. Samples were also obtained from these tissues at the end of the clamp and western blot analysis was performed as described previously (Muzumdar et al. 2003) The blots were scanned using the LI-COR Odyssey (LI-COR, Lincoln, Nebr., USA) and quantified using Odyssey 2.0 software based on direct fluorescence measurement. Dot blots were performed by blotting 50 ng of humanin, HN-analogues, and IGF on nitrocellulose, incubating with 125-I-labeled-IGFBP-3, autoradiography and scanning.
# Chain of IGFBP-3 (P17936 28-291): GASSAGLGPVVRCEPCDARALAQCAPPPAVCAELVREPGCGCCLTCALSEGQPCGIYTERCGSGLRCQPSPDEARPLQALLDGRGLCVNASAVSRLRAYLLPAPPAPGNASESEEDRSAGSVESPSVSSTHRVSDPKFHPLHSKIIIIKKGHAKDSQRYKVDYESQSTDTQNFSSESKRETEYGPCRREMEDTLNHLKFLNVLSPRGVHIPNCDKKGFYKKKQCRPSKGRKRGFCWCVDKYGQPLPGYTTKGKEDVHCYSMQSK
sequence,measurement,setting,value
MAPRGASCLLLLTGEIDLPVKRRA (Humanin analog HNGF6A) [HN with alanine at 6th amino acid],potency on survival (Apoptosis ELISA),normal MEFs,more potent
same,glucose levels at 90 and 120 min,NONcNZO10/LtJ mice,significantly lower
same,glucose tolerance,NONcNZO10/LtJ mice,significantly better glucose tolerance
same,potency on survival (Apoptosis ELISA),BP3KO MEFs,equal potency
same,glucose infusion rates during clamp,Sprague-Dawley rats,significantly higher
same,hepatic glucose production,Sprague-Dawley rats; clamp,suppressive effects
same,peripheral glucose uptake,Sprague-Dawley rats; clamp,significant increase
same,ability to bind IGFBP-3,IGFBP-3,completely devoid of the ability to bind IGFBP-3
